# Results published in ChEMBL document CHEMBL1128095, “3,4-diarylthiophenes are selective COX-2 inhibitors” (Bioorg Med Chem Lett, 1995).
# What was measured:
# [1] = molecular target: T1, Prostaglandin G/H synthase 2 (Homo sapiens, UniProt P35354)
# T1 sequence (P35354 whole entry): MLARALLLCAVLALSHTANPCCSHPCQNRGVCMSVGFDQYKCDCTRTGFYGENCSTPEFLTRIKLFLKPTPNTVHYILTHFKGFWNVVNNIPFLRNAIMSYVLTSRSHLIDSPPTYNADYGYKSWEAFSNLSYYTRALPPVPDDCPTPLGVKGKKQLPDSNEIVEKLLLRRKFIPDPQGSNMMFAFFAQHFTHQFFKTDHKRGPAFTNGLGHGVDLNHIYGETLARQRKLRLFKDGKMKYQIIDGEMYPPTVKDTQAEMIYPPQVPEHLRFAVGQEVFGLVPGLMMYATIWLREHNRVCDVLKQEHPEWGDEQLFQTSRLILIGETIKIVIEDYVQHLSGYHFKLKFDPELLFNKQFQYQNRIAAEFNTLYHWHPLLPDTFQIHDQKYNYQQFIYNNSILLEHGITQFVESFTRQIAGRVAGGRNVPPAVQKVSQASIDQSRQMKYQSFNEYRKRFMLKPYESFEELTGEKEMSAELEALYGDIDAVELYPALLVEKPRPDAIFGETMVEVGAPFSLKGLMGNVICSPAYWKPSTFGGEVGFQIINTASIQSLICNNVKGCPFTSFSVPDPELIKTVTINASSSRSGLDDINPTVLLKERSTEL
# Description: Inhibitory activity against human recombinant Prostaglandin G/H synthase 2
# Rattus norvegicus = test: Compound was tested for its ability to inhibit carrageenan rat foot edema at 10 mg/kg dose; assay type: functional
# [2] = molecular target: Prostaglandin G/H synthase 1 (Homo sapiens, UniProt P23219); test: Inhibitory activity against human recombinant Prostaglandin G/H synthase 1
# Prostaglandin G/H synthase 1, sequence (P23219 whole entry): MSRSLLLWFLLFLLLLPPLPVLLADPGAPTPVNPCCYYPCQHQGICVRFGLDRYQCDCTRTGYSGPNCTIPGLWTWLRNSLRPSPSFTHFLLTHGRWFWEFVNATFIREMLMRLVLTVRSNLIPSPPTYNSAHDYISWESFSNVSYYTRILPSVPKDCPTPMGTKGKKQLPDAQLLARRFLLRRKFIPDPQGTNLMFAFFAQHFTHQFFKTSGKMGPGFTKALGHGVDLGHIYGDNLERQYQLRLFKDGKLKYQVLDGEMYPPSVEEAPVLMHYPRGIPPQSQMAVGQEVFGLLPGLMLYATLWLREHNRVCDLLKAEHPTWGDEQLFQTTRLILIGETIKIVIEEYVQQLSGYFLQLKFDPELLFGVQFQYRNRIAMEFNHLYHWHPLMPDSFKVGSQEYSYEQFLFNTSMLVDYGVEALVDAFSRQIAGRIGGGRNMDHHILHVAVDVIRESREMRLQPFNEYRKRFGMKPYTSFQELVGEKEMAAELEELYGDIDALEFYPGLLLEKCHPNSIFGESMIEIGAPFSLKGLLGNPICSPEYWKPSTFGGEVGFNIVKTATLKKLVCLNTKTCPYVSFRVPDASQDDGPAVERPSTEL
SMILES,IC50 [1],IC50 [2],inhibition in vivo at 10 mg/kg (Rattus norvegicus)
CS(=O)(=O)c1ccc(-c2c(-c3ccc(F)cc3)csc2Br)cc1,> 100 µM,> 100 µM,–
CS(=O)(=O)c1ccc(-c2cc(Br)sc2-c2ccc(F)cc2)cc1 [DUP-697],–,–,57%
CS(=O)(=O)c1ccc(-c2csc(Br)c2-c2ccc(F)cc2)cc1,–,5.2 µM,30%
CS(=O)(=O)c1ccc(-c2c(Br)sc(Br)c2-c2ccc(F)cc2)cc1,0.7 µM,> 1000 µM,–

# More lines, main results first:
IC50 [1],IC50 [2],SMILES,inhibition in vivo at 10 mg/kg (Rattus norvegicus)
0.008 µM,1.8 µM,NS(=O)(=O)c1ccc(-c2cscc2-c2ccc(F)cc2)cc1,46.5%
0.03 µM,> 100 µM,COc1ccc(-c2cscc2-c2ccc(S(C)(=O)=O)cc2)cc1F,–
0.009 µM,10 µM,COc1ccc(-c2cscc2-c2ccc(S(N)(=O)=O)cc2)cc1F,–
0.05 µM,0.9 µM,COc1ccc(-c2cscc2-c2ccc(S(C)(=O)=O)cc2)cc1,–
0.08 µM,> 1000 µM,CS(=O)(=O)c1ccc(-c2cscc2-c2ccc(F)cc2)cc1,33%
